Counter-ions that a name gives are not always drawn.
Columns and labels:
[1] = tested on: K. pneumoniae expressing the Class A carbapenemase KPC-2; test: microbe, parasite or virus in culture; format: cell-based
Description: (§1) To determine the ability of test compounds to potentiate the inhibition of the growth of bacterial strains producing beta-lactamase enzymes, classic cell based screening assays were employed. Five bacteria strains producing beta-lactamase enzymes were used: K. pneumoniae expressing the Class A Extended Spectrum Beta-Lactamase (ESBL) CTX-M-15, E. coli expressing the Class A ESBL SHV-5, E. cloacae expressing the Class C P99+, K. pneumoniae expressing the Class A carbapenemase KPC-2, and P. aeruginosa expressing the Class B metallo β-lactamase VIM-2. In order to evaluate the ability of test compounds to inhibit beta-lactamase activity, Applicants used a modification of the broth microdilution assay. The assay was conducted in Cation Adjusted Mueller Hinton Broth (CAMHB, BD # 212322, BD Diagnostic Systems, Sparks, Md.). Bacteria strains were grown for 3-5 hours in CAMBH broth. All five strains were grown in presence of 50 μg/mL ampicillin to ensure resistance is maintained. In the meantime, test compounds were diluted in DMSO to a 0.1 mg/mL stock. The compounds were added to a microtiter plate and were diluted in 2-fold serial dilutions in CAMHB in a final concentration range of 8 μg/mL to 0.015 μg/ml. […] Each of these compound plates are made in quadruplicate, one for each bacteria strain. In addition to the titration of test compounds the MICs of a panel of cephalosporins is also tested to ensure the strains are behaving consistently from test to test. Once the test compound and cephalosporin are added the plates can be inoculated. Inocula are conducted according to CLSI broth microdilution method. After inoculation the plates are incubated for 16-20 hours at 37° C. then the Minimal Inhibitory Concentration (MIC) of the test compound is determined visually.
(§2) Using the methodology described above, examples of the current invention were evaluated for their ability to inhibit the growth of β-lactamase producing bacteria in the presence of a β-lactam antibiotic.

[2] = biological target: T1, VIM-2 metallo β-lactamase (Pseudomonas aeruginosa, UniProt Q9K2N0); test: β-lactamase enzyme inhibition assay (nitrocefin substrate), VIM-2; format: biochemical; settings: nitrocefin 100 μM, 37° C., PBS pH 7.0; read-out: VIM-2 IC50
T1 construct: made in house
Procedure: (§3) Isolation of β-lactamases. For SHV-5, p99 AmpC, KPC-2 and CTX-M15 β-lactamases, E. coli BL21(DE3) bacterial cells carrying expression plasmids (expressed as native untagged proteins) for the individual β-lactamases were grown in 1 L of Superbroth (Teknova Inc. Hollister, Calif.) supplemented with 100 μg/ml kanamycin and 1×5052 (0.5% glycerol, 0.05% glucose and 0.2% α-lactose) at 35° C. for 18-20 hours. Cells were harvested by centrifugation (4,000×g, 4° C., 20 min), and resuspended in 50 ml of 10 mM HEPES pH 7.5 (1/20 of the initial volume). The cells were lysed by sonication (5 pulses of 45 seconds) at 45 W on ice. The lysates were clarified by centrifugation at 10,000×g for 40 minutes at 4° C. Samples were diluted 5-fold in 50 mM sodium acetate pH 5.0, stored overnight at 4° C., after which they were centrifuged at 10,000×g for 30 minutes to clarify, and filtered through 0.45 μm filters. The samples were loaded onto a 5 ml Capto S sepharose cation exchange column (GE Healthcare) pre-equilibrated with 50 mM sodium acetate pH 5.0. The column was washed with 5 column volumes of 50 mM sodium acetate pH 5.0 to wash out unbound protein and a linear gradient of NaCl (0 to 500 mM) was used to elute the protein (over 16 CV) from the column. Fractions were assayed for β-lactamase activity using Centa (Calbiochem, Gibbstown, N.J.) as a reporter β-lactamase substrate for activity in the isolated fractions. Active fractions were pooled, concentrated and further purified by gel filtration chromatography on a Superdex 75 prep grade gel filtration column (GE Healthcare, Piscataway, N.J.) pre-equilibrated in 50 mM Hepes pH 7.5, 150 mM NaCl. Active fractions were pooled concentrated, quantitated by BCA protein determination (Thermo Scientific, Rockford, Ill.), and frozen at −80° C. in 20% glycerol until use.
For VIM-2 metallo (β-lactamase, the procedure was identical with the following exceptions: 1) the protein was not pH adjusted to pH 5 with 50 mM sodium acetate, 2) the chromatography step was changed to a 5 ml Q sepharose anion exchange column pre-equilibrated with 50 mM Hepes pH 7.5, and 3) elution of the protein was achieved by a linear gradient of NaCl (0-600 mM). Finally, the VIM-2 purification required a second run (3rd step) on the Q sepharose anion exchange column to achieve acceptable purity (>90%).
(§4) β-lactamase Inhibition. To determine the level of inhibition of β-lactamase enzymes, compounds were diluted in PBS at pH 7.0 to yield concentrations between 100 and 0.005 μM in microtiter plates. An equal volume of diluted enzyme stock was added, and the plates were incubated at 37° C. for 10 min. Nitrocefin solution was then dispensed as substrate into each well at a final concentration of 100 μM, and the plates were immediately read with the kinetic program at 486 nm for 10 min on the SPECTRAMAX® Plus^384 (high-throughput microplate spectrophotometer; Molecular Devices Corp., Sunnyvale, Calif.). Maximum rates of metabolism were then compared to those in control wells (without inhibitors), and percentages of enzyme inhibition were calculated for each concentration of inhibitor. The concentration of inhibitor needed to reduce the initial rate of hydrolysis of substrate by 50% (IC50) was calculated as the residual activity of β-lactamase at 486 nm using the SoftMax Pro 5.0 software (Molecular Devices Corp.).
(§5) Using the methodology described above, examples of the current invention were evaluated for their ability to inhibit β-lactamase enzymes. The results of these assays are summarized in Table 2 for representative enzymes across different subtypes (note SHV-5 and CTXM-15 exemplify different subclasses of Ambler Class A Extended Spectrum Beta Lactamases, KPC-2 exemplifies Class A carbapenemases, P99 represents chromosomal Class C AmpC, VIM-2 exemplifies subclass B1 of metallo-β-lactamases, and OXA-23 represents chromosome-encoded Class D oxacillin-hydrolyzing β-lactamases), NT=not tested.

[3] = biological target: T2, OXA-23 β-lactamase (Acinetobacter baumannii, UniProt Q9L4P2); test: β-lactamase enzyme inhibition assay (nitrocefin substrate), OXA-23 crude extract; format: biochemical; settings: nitrocefin 100 μM, 37° C., PBS pH 7.0; read-out: OXA-23 IC50
T2 construct: crude β-lactamase extracts were prepared from 20 ml overnight cultures; endogenous in cells; host or cells: Acinetobacter baumannii cells containing OXA-23 (crude freeze-thaw extract)
T2 sequence (Q9L4P2 18-273): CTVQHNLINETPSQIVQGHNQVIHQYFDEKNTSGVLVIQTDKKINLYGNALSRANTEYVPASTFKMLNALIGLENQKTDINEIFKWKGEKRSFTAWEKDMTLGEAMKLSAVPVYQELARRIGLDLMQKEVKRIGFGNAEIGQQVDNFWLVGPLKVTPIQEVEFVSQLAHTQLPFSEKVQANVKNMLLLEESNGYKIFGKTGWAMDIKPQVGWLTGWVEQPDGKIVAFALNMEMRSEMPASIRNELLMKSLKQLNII
Procedure: For OXA-23 β-lactamase, crude β-lactamase extracts were prepared from 20 ml overnight cultures with shaking. Acenitobacter baumanni cells containing OXA-23 were further diluted 10-fold and grown to mid-log phase (OD at 600 nm, 0.5-0.8) in Mueller-Hinton II (MH-II) broth at 37° C. The cells were pelleted at 5000 g, washed and resuspended in 2 mL PBS pH 7.0. The β-lactamases were extracted by four cycles of freezing and thawing followed by centrifugation. β-lactamase activity in the extracts was measured with the chromogenic cephalosporin nitrocefin. The amount of protein in each β-lactamase preparation was determined by the bicinchoninic acid (BCA) assay.
as §4

[4] = biological target: T3, p99 AmpC β-lactamase (Enterobacter cloacae, UniProt P05364); test: β-lactamase enzyme inhibition assay (nitrocefin substrate), P99 AmpC; format: biochemical; settings: nitrocefin 100 μM, 37° C., PBS pH 7.0; read-out: P99 AmpC IC50
T3 construct: expressed as native untagged proteins; made in house; host or cells: E. coli BL21(DE3)
T3 sequence (P05364 21-381): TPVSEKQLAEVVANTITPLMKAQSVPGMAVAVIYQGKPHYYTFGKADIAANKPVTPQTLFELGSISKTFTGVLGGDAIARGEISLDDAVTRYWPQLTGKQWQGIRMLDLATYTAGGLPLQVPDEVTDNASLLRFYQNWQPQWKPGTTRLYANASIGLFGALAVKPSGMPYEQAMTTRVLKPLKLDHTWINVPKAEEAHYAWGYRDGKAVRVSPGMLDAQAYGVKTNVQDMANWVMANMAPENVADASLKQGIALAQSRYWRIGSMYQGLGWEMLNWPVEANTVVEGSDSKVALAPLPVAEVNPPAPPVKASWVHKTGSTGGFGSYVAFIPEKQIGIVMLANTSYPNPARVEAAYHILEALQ
Procedure: as §3, §4, §5

[5] = biological target: T4, SHV-5 β-lactamase (Klebsiella pneumoniae, UniProt P0A3M1); test: β-lactamase enzyme inhibition assay (nitrocefin substrate), SHV-5; format: biochemical
T4 construct: expressed as native untagged proteins; made in house; host or cells: E. coli BL21(DE3)
T4 sequence (P0A3M1 22-286): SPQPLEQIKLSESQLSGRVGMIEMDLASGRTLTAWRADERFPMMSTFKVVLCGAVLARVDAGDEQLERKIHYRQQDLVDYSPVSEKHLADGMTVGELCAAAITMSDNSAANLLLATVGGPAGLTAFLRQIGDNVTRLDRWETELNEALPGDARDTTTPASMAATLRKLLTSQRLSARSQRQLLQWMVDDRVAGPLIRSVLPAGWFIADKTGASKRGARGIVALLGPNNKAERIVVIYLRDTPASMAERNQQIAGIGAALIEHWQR
Procedure: as §3, §4, §5

[6] = biological target: T5, KPC-2 β-lactamase (Klebsiella pneumoniae, UniProt Q9F663); test: β-lactamase enzyme inhibition assay (nitrocefin substrate), KPC-2; format: biochemical
T5 construct: expressed as native untagged proteins; made in house; host or cells: E. coli BL21(DE3)
T5 sequence (Q9F663 25-293 limits assumed): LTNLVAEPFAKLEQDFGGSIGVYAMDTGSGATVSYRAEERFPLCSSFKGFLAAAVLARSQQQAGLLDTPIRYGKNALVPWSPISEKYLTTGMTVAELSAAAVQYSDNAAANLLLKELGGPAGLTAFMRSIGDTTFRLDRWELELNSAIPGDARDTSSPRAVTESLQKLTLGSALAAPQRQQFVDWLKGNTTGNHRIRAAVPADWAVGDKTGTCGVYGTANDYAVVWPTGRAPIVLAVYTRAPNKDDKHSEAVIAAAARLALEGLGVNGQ
Procedure: as §3, §4, §5

[7] = tested on: K. pneumoniae expressing the Class A Extended Spectrum Beta-Lactamase (ESBL) CTX-M-15; test: In vitro antibacterial assay of β-lactamase inhibition (broth microdilution MIC), K. pneumoniae CTX-M-15; format: cell-based
Description: as §1, §2

[8] = tested on: E. cloacae expressing the Class C P99+; test: In vitro antibacterial assay of β-lactamase inhibition (broth microdilution MIC), E. cloacae P99+; format: cell-based
Description: as §1, §2

[9] = biological target: T6, CTX-M15 β-lactamase (Escherichia coli, UniProt Q9EXV5); test: β-lactamase enzyme inhibition assay (nitrocefin substrate), CTXM-15; format: biochemical
T6 construct: expressed as native untagged proteins; made in house; host or cells: E. coli BL21(DE3)
T6 sequence (Q9EXV5 entry or part of it): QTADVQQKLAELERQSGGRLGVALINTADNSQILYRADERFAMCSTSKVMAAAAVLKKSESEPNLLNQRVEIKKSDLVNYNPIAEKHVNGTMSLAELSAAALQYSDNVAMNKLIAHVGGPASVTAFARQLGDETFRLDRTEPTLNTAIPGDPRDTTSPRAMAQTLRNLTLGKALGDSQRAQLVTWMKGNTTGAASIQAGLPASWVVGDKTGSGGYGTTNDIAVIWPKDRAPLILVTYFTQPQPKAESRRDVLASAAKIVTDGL
Procedure: as §3, §4, §5

[10] = tested on: E. coli expressing the Class A ESBL SHV-5; test: In vitro antibacterial assay of β-lactamase inhibition (broth microdilution MIC), E. coli SHV-5; format: cell-based
Description: as §1, §2

[11] = in presence of Ceftazidime 8 μg/ml (Examples 1-56)
[12] = in presence of Piperacillin 16 μg/ml (Examples 57-65)

Row | SMILES | MIC of example compound, K. pneumoniae KPC-2 [1, 11] [mg/L] | IC50 [2] [µM] | IC50 [3] [µM] | IC50 [4] [µM] | IC50 [5] [µM] | IC50 [6] [µM] | MIC of example compound, K. pneumoniae CTX-M-15 [7, 11] [mg/L] | MIC of example compound, E. cloacae P99+ [8, 11] [mg/L] | IC50 [9] [µM] | MIC of example compound, E. coli SHV-5 [10, 11] [mg/L] | MIC of example compound, K. pneumoniae KPC-2 [1, 12] [mg/L] | MIC of example compound, K. pneumoniae CTX-M-15 [7, 12] [mg/L] | MIC of example compound, E. cloacae P99+ [8, 12] [mg/L] | MIC of example compound, E. coli SHV-5 [10, 12] [mg/L]
1 | CCNCc1ccc(C(=O)N[C@@H](Cc2cccc(C(=O)O)c2O)B(O)O)cc1.Cl [Example 6, 2(R)-3-[2-(4-(N-ethylaminomethyl)benzoylamino)-2-borono-ethyl]-2-hydroxy-benzoic acid Hydrochloride] | 0.03 | 0.057 | > 1 | 0.001 | > 1 | 0.004 | 1 | 0.25 | 0.004 | 4 |  |  |  | 
2 | Cl.NCc1cc(CC(=O)N[C@@H](Cc2cccc(C(=O)O)c2O)B(O)O)ccn1 [Example 63, (2R)-3-{2-[(2-Aminomethyl-pyridin-4-yl-acetyl)-amino]-2-borono-ethyl}-2-hydroxy-benzoic acid hydrochloride] |  | 0.621 | 0.534 | 0.009 | 0.008 | 0.024 |  |  | 0.01 |  | 0.125 | >16 | 4 | 0.06
3 | NCc1ccc(/C(=N/O)C(=O)N[C@@H](Cc2cccc(C(=O)O)c2O)B(O)O)cc1 [Example 53, 3-{2(R)-[2-(4-aminomethyl-phenyl)-2-hydroxyimino-acetylamino]-2-borono-ethyl}-2-hydroxy-benzoic acid hydrochloride] |  | 0.312 | 0.35 |  | 0.029 | 0.039 |  |  | 0.012 |  |  |  |  | 
4 | O=C(O)CNCc1ccc(CC(=O)N[C@@H](Cc2cccc(C(=O)O)c2O)B(O)O)cc1 [Example 58, (1R)-1-(2-{4-[(1-Carboxymethyl-amino)-methyl]-phenyl}-acetylamino)1-[(3-carboxy-2-hydroxy)benzyl]-methylboronic acid formate] |  |  | 0.182 | 0.006 | 0.0005 | 0.013 |  |  | 0.004 |  | 0.5 | >8 | 2 | 0.5
